Patent publication US20050123536A1, “Treatment of immunological disorders using anti-dc30 antibodies” (priority 2001, published 2005)
Several values for one entry are separate records, joined by “and”; a condition that tells them apart may be missing. Equal values may be shown once. Entries after “also recorded” stand apart in the source; their conditions may differ.

Legend:
[1] = system: Jurkat T cells; assay: Jurkat T cell proliferation, 3H-TdR incorporation, anti-CD30 mAbs with or without secondary cross-linking Ab; assay type: cell-based, human; settings: for inhibition of Jurkat T cell proliferation by immobilized mAb: mAb immobilized onto TC wells, data not shown; for inhibition of thymidine incorporation in Jurkat cells: secondary cross-linking antibody used
Protocol: FIG. 2. […] Proliferation was assessed by a pulse of tritiated thymidine (^3H-TdR) during the last 4 hours of a 72 hour incubation.
FIG. 3. […] Proliferation was assessed by a pulse of ^3H-TdR during the last 4 hours of a 48-hour incubation.
The effect of signaling through CD30 by anti-CD30 on the proliferation of Jurkat T cells was assessed by tritiated thymidine (^3H-TdR) incorporation assays. Jurkat cells were treated with soluble anti-CD30 in graded doses or anti-CD30 cross-linked by a secondary cross-linking antibody (Ab). […] Final ratios of 1:2.5, 1:5, and 1:10 between the primary mAbs and secondary cross-linking antibodies were used. Antibody cocktails were allowed to incubate at room temperature for 15 minutes. Serial dilutions of these antibody cocktails in culture medium were then prepared to achieve the desired final concentrations. One hundred ill of antibody cocktails were then mixed with 100 μl Jurkat cell suspension containing 5000 cells in 96-well tissue culture (TC) plates. Cells were incubated with the antibody cocktails for 44 hours before a 4-hour pulse with 1 μCi of ^3H-TdR. Cells were then harvested onto filters, and incorporated tritiated thymidine was measured by scintillation counting. Thymidine incorporation values obtained from the treated cells were then compared to the untreated control cultures.

[2] = system: Jurkat T cells; assay: Apoptosis by Annexin V binding and permeability to PI; assay type: cell-based, human; settings: primary mAb 2 μg/ml, 10-fold excess GAM
Protocol: FIG. 7. […] Anti-CD30 and anti-CD3 mAbs were used at 2 μg/ml. GAM secondary Ab was used in 10-fold excess to cross-link the primary mAbs. Binding of FITC-conjugated Annexin V enabled the detection of cells undergoing apoptosis. Membrane permeability to PI was used to detect dead cells that had lost membrane integrity. In the figure, Annexin V^−/PI^− events represent live cells (lower left quadrant), Annexin V^+/PI^− events represent apoptotic cells (lower right quadrant), and Annexin V^+/PI^+ events represent dead cells (upper right quadrant). Numbers outside of the density plots denote the percentage of cells present in each of the quadrants.
Primary mAbs were used at a final concentration of 2 μg/ml. A 10-fold excess of GA-M antibody was used to cross-link the primary antibodies. After an incubation of 15 minutes at room temperature, antibody cocktails were added to Jurkat cells. At the times designated in FIG. 7, percentages of apoptotic and dead cells in the cultures were determined by Annexin V binding and permeability to PI using the Annexin V-FITC Apoptosis Detection Kit I (BD PharMingen, San Diego, Calif.) according to the manufacturer's instruction. […]

[3] = system: Jurkat T cells; assay: Cell cycle disposition, DNA synthesis and DNA fragmentation (apoptosis) by PI and anti-BrdU staining; assay type: cell-based, human; settings: for DNA fragmentation in Jurkat cells: mAb cross-linked by goat anti-mouse IgG Fc, after 24 and 48 hours
Protocol: The relationship between cell cycle status and DNA replication in Jurkat cells treated with cross-linked anti-CD30 in Abs was further investigated. […] The antibody cocktails were allowed to incubate at room temperature for 15 minutes. Serial 1:10 dilutions of these antibody cocktails in culture medium were then prepared. One ml of antibody cocktails was then mixed with 1 ml of Jurkat cell suspension containing 0.25×10^6 cells in 12-well TC plates.
After 24 or 48 hours of incubation, cells were harvested by centrifugation and resuspended in 2 ml of fresh medium equilibrated at 37° C. Bromodeoxyuridine (BrdU) (Sigma, St. Louis, Mo.) was used to label cells that were actively synthesizing DNA. Twenty μl of 1 mM BrdU dissolved in water were added to the cell suspension, and the incubation continued at 37° C. for 15 minutes. Cells were then spun down, washed once with PBS, and resuspended in 0.5 ml of ice-cold PBS. One ml of 100% ethanol at −20° C. was added drop-wise to the cell suspension for cell fixation. After fixation at 4 C for 30 minutes, fixed cells were spun down. The cell pellets were resuspended in 1 ml of 2 M HCl with 0.5% Triton X-100 (Sigma) and incubated for 30 minutes at room temperature before cells were spun down. One ml of 0.1 M Na2B4O7 at pH 8.5 was used to resuspend the cell pellets and to neutralize the acid for 10 minutes at room temperature. Cells were then pelleted by centrifugation and washed once with PBS containing 0.5% Tween 20 (Sigma) and 1% BSA. […] Cells were then washed twice with PBS, 0.5% Tween 20, 1% BSA, and then resuspended in 0.5 ml of PBS containing 5 μg/ml of propidium iodide (PI) (Sigma) to quantify DNA contents in cells. […]
Jurkat T cells were treated with either anti-CD30 mAb alone, anti-CD3 mAb, alone, or a combination of anti-CD30 and anti-CD3 mAbs. […] Cell cycle distribution was determined by BrdU and PI staining as in FIG. 4.

[4] = target: CD3 (human); assay: cell-based or functional assay
[5] = system: T lymphocyte clones 40E10 and 40H7; assay: Apoptosis induction in T cell clones by Annexin V binding and permeability to PI; assay type: cell-based, human; settings: 1 μg/ml of ADC, 4S-hour incubation
Protocol: FIG. 21. […] After 48 hr of incubation, Annexin V binding and permeability of PI were used to assess the extent of apoptosis induction.

[6] = system: activated naïve T lymphocytes (CD45RO-); assay: Proliferation of activated naïve T lymphocytes, 3H-TdR; assay type: cell-based, human; settings: compared to memory T lymphocytes or T lymphocyte clones
Protocol: As PBMC are made up of different subsets of lymphocytes, the response of one cellular subset toward cAC10 ADCs may easily be masked by other subsets. In order to examine this possibility, total T lymphocytes, naïve and memory T lymphocytes were enriched from PBMC by negative immuno-selection. Briefly, PBMCs were incubated with one of the following antibody cocktails, containing saturating quantities of antibodies, at a final concentration of 20×10^6 cells/ml on ice for 20 minutes. To enrich for total T lymphocytes, the antibody cocktail contained anti-CD 14 (BD PharMingen), anti-CD16 (BD PharMingen), and anti-CD20 (BD PharMingen). To enrich for naïve T lymphocytes (CD45RO^−), the antibody cocktail contained anti-CD14, anti-CD16, anti-CD20, and anti-CD45RO (BD PharMingen). To enrich for memory T lymphocytes (CD45RA^−), the antibody cocktail contained, anti-CD14, anti-CD16, anti-CD20, and anti-CD45RA (BD PharMingen). […]
Activation-induced expression of CD30 on different T cell subsets was then examined. […] After 72 hours of incubation, the expression of CD30 on both CD4 and CDS cells in the different cultures was determined by flow cytometry, also as outlined in Example 6. Expression of CD30 was detected on both CD4 and CDS cells regardless of whether the starting population was total, naïve, or memory T lymphocytes (FIG. 12). […]

[7] = system: 10 CD30+ T lymphocyte clones; assay: Summary of efficacies of cAC10 ADCs on proliferation of CD30+ T lymphocyte clones; assay type: cell-based, human; settings: FIG. 23 summary
From the text: The following trend was observed. […] These clones have been expanded through multiple rounds of T cell receptor and cytokine stimulation, similar to chronically stimulated effector T cells involved in inflammatory and autoimmune responses.

[8] = system: Jurkat T cells; assay: Growth inhibition of Jurkat T cells by ADC, 3H-TdR pulse; assay type: cell-based, human; settings: 80 hours incubation + 16 hour 3H-TdR pulse
Protocol: FIG. 9. […] Cells were exposed to the ADCs continuously for a total of 96 hr. Proliferation was assessed by a pulse of H-TdR during the last 16 hours of incubation.
Five thousand Jurkat T cells in 100 μl of medium were seeded in 96-well TC plates. […] After 80 hours of incubation, cellular DNA synthesis was assessed by a 16 hour ^3H-TdR pulse.

[9] = target: CD30 (human) (UniProt P28908); assay: cell-based or functional assay
Chain of CD30 (human) (P28908 19-595): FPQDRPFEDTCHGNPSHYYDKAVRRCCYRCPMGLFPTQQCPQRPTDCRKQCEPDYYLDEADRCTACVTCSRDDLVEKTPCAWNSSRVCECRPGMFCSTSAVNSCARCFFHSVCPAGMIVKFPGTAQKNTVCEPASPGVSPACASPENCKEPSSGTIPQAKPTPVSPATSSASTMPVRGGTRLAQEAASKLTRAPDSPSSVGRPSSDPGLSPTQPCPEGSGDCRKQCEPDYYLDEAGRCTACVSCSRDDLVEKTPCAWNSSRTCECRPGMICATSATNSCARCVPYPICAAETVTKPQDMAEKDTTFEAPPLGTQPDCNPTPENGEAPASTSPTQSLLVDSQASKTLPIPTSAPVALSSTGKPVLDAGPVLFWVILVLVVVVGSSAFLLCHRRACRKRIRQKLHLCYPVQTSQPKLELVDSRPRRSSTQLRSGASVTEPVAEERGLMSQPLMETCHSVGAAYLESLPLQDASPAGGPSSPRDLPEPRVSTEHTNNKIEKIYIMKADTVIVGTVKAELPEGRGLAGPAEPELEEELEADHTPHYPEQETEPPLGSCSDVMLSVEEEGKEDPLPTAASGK

Q: Which “inhibition of Jurkat T cell proliferation by immobilized mAb” value [1] does the source give for “AC10: murine anti-CD30 mAb; variable regions SEQ ID NO:2 and 10” here?
A: active in inhibiting Jurkat T cell proliferation

Q: And the “inhibition of thymidine incorporation in Jurkat cells” value [1]?
A: inhibited thymidine incorporation in Jurkat cell dose-dependently

Q: And the “earliest time of detectable apoptosis after incubation” value [2]?
A: 4 h

Q: What about the “DNA fragmentation in Jurkat cells” value [3] of the same molecule?
A: detectable

Q: What about the “apoptosis induction in Jurkat T cells (BrdU and PI staining)” value ([3]; single mAb cross-linked by goat anti-mouse IgG Fc, compared to medium control) of the same molecule?
A: induced apoptosis

Q: With anti-CD3 mAb OKT3 (antibody) as the molecule, how does the concentration giving the best synergy with AC10 for apoptosis in Jurkat T cells [4] read?
A: 0.2 mg/L

Q: Which “cells either apoptotic or dead” value [5] does the source give for “cAC10-fkMMAE: chimeric AC10 anti-CD30 antibody conjugated to MMAE via phenylalanine-lysine linker” here?
A: 44-48%

Q: “cAC10-vcAEFP: chimeric AC10 anti-CD30 antibody conjugated to AEFP via valine-citrulline linker” was tested. Which “sensitivity of naïve T lymphocytes to the ADC” value [6] did it give?
A: less sensitive; also recorded: most refractory

Q: “cAC10-vcMMAE: chimeric AC10 anti-CD30 antibody conjugated to MMAE via valine-citrulline linker” was tested. Which “sensitivity of T lymphocyte clones compared to memory T lymphocytes” value [7] did it give?
A: eight of the 10 T lymphocyte clones were found to be more sensitive

Q: And the “sensitivity of naïve T lymphocytes to the ADC” value [6]?
A: relatively refractory; also recorded: most refractory

Q: And the IC50 [8]?
A: approximately 0.1 μg/ml

Q: And the “concentrations that significantly inhibited DNA synthesis” value [8]?
A: higher than 0.001 μg/ml

Q: “cAC10: chimeric AC10 (cAC10) anti-CD30 mAb” was tested. Which “concentration with growth inhibitory effect on Jurkat cells” value ([1]; soluble, unconjugated (FIG. 2)) did it give?
A: higher than 1 μg/ml

Q: What about the “concentrations at which Jurkat cell proliferation was not inhibited” value ([1]; without secondary cross-linking) of the same molecule?
A: below 1 μg/ml

Q: What does the source list for cIgG-fkMMAE (antibody)?
A: percent of cells apoptotic or dead (Annexin V / PI), clones 40E10 and 40H7, 48 h with 1 µg/ml ADC (control for cAC10-fkMMAE) [9]: 13% and 31%; proliferation of activated Th2 clones 40E10 and 40H7 (3H-TdR); concentration needed for inhibition (control ADC) [9]: > 0.1 µg/mL

Q: Which results are given for “non-binding control IgG (cIgG)-vcMMAE (antibody)”?
A: Jurkat T cell DNA synthesis (3H-TdR), 96 h exposure; concentration needed for growth inhibition (control ADC) [9]: > 0.1 µg/mL; proliferation of activated Th2 clones 40E10 and 40H7 (3H-TdR); concentration needed for inhibition (control ADC) [9]: > 2 µg/mL

B1: HeFi-1: murine anti-CD30 mAb; variable regions SEQ ID NO:18 and 26 (antibody, listed as Mus musculus, V domains shown)
VH: EVKLVESGGGLVQPGGSLRLSCATSGFTFSDYYMNWVRQPPGKALEWLGFIRNKANGYTTEFSASVMGRFTISRDDSQSILYLQMNTLRAEDSATYYCARDPPYGNPHYYAMDYWGQGTSVTVSS
VL: DIVLTQSPASLAVSLGQRATISCRASKSVSASGYNYMHWYQQKAGQPPKLLIHLASNLESGVPARFSGSGSGTDFTLNIHPVEEEDASTYYCQHSGELPFTFGSGTKLEIK
Q: B1 was tested. Which “inhibition of Jurkat T cell proliferation by immobilized mAb” value [1] did it give?
A: active in inhibiting Jurkat T cell proliferation

Q: What about the “inhibition of thymidine incorporation in Jurkat cells” value [1] of the same molecule?
A: inhibited thymidine incorporation in Jurkat cell dose-dependently

Q: What about the “earliest time of detectable apoptosis after incubation” value [2] of the same molecule?
A: 4 h

Q: And the “DNA fragmentation in Jurkat cells” value [3]?
A: detectable
